Results on six substances are retold here after patent publication US4643989A, “Inhibition of aldosterone secretion” (The Salk Institute for Biological Studies, priority 1984, dated 1987).

In experiment [1] the test system is rat adrenoglomerulosa cells. As to the kind of experiment: Basal secretion of aldosterone by rat glomerulosa cells (radioimmunoassay). Type of experiment: cell-based. Conditions: for testing as set forth in Example II (inhibition of aldosterone secretion by rat glomerulosa cells): compared with rANF(8-33) results of Example II. As to the method:
(§1) Rat adrenoglomerulosa cells are obtained by enzymatic digest of adrenals harvested from peripubertal male Sprague Dawley rats(Holtzman, 125 g) using previously described methods, and testing is carried out to determine the effect of synthetic rANF(8-33) on the basal secretion of aldosterone by rat glomerulosa cells. Rat glomerulosa cells are prepared by enzymatic digestion of 20 rat adrenals after ennucleation. The cells remaining on the capsule are digested for 30 minutes with a mixture of collagenase and DNase (4 mg/ml, 4 μg/ml). Dispersed cells are filtered through gauze and centrifuged at 800 rpm for 15 minutes. The pellet is resuspended in M199 buffer containing 0.1% bovine serum albumin(BSA), and the cells are centrifuged at 800 rpm for 15 minutes. The cell pellet is again resuspended in M199-0.1% BSA buffer and distributed in 900-μl aliquots to 12×75 plastic tubes. The samples are preincubated for 90 minutes in a 37° C. waterbath under an atmosphere of 5% CO2 -95% O2. Aliquots of the test samples are added in a 100 μl volume and incubated for 4 hours. Aldosterone and corticosterone are measured by radioimmunoassay using antisera purchased from Endocrine Sciences, Oxnard, Calif. and [^3 H]-labelled steroid from New England Nuclear, Boston, Mass. Results are the mean±SEM of 7 replicates. Statistical analysis is performed by analysis of variance, and all points are significant (p<0.01) from control. In concentrations as low as ≤10^-9 M, there is a significant (p<0.01) inhibition of aldosterone synthesis that is even more accentuated when the higher concentrations are tested (p<0.001).

For experiment [2], the system named is rat glomerulosa cells. Kind of experiment: Corticosterone formation by rat glomerulosa cells (radioimmunoassay). Type of experiment: cell-based. Conditions: 10^-7 M peptide. As to the method: as §1
In other experiments, ANF(8-33) had no effect on pituitary ACTH secretion.

In experiment [3] the test system is rat glomerulosa cells. Kind of experiment: AN-II-stimulated aldosterone secretion by rat glomerulosa cells. The experiment is classed as cell-based. The conditions noted are these: equimolar amounts of AN-II and peptide; p<0.001 versus secretagogue alone. As to the method: as §1, with “Aliquots of the test samples are added in a 100 μl volume and incubated for 4 hours.” left out, “Results are the mean±SEM of 7 replicates. Statistical analysis is performed by analysis of variance, and all points are significant (p<0.01) from control. In concentrations as low as ≤10^-9 M, there is a significant (p<0.01) inhibition of aldosterone synthesis that is even more accentuated when the higher concentrations are tested (p<0.001).” left out
(§2) Similar inhibitory effects on aldosterone formation are obtained when its secretion by the glomerulosa cells in vitro is stimulated with either ACTH or AN-II. […] Aldosterone secretion is measured as above by radioimmunoassay. […]

The test system of experiment [4] is rat glomerulosa cells. Kind of experiment: ACTH-stimulated aldosterone secretion by rat glomerulosa cells. The experiment is classed as cell-based. Conditions: equimolar amounts of ACTH and peptide; p<0.001 versus secretagogue alone. On the procedure:
as §1, with “Aliquots of the test samples are added in a 100 μl volume and incubated for 4 hours.” left out, “Results are the mean±SEM of 7 replicates. Statistical analysis is performed by analysis of variance, and all points are significant (p<0.01) from control. In concentrations as low as ≤10^-9 M, there is a significant (p<0.01) inhibition of aldosterone synthesis that is even more accentuated when the higher concentrations are tested (p<0.001).” left out
as §2

For the next experiment, the system named is pituitary ACTH secretion. Kind of experiment: Pituitary ACTH secretion. Conditions: other experiments.

Bridges are numbered along the chain shown (N, C = ends).

On to “H-Arg-Arg-Ser-Ser-Cys-Phe-Gly-Gly-Arg-Met-Asp-Arg-Ile-Gly-Ala-Gln-Ser-Gly- Leu-Gly-Cys-Asn-Ser-Phe-Tyr-OH (H-RRSSCFGGRMDRIGAQSGLGCNSFY-OH; disulfide 5-21; ends not checked) [hANF(8-33)]”, for which the “testing as set forth in Example II (inhibition of aldosterone secretion by rat glomerulosa cells)” value in experiment [1] is reported as “comparable results”.

As for “rANF(3-33)--NH2: C-terminal amide of rat ANF fragment 3-33”, the “testing as set forth in Example II (inhibition of aldosterone secretion by rat glomerulosa cells)” value in experiment [1] was “comparable results”.

Regarding rANF(5-33): rat ANF fragment 5-33, the “testing as set forth in Example II (inhibition of aldosterone secretion by rat glomerulosa cells)” value in experiment [1] is listed as “comparable results”.

On to rANF(8-30): rat ANF fragment 8-30, for which, in experiment [1], the “testing as set forth in Example II (inhibition of aldosterone secretion by rat glomerulosa cells)” value is “comparable results”.

Regarding “rANF(8-32)--NH2: C-terminal amide of rat ANF fragment 8-32”, the “testing as set forth in Example II (inhibition of aldosterone secretion by rat glomerulosa cells)” value in experiment [1] is “comparable results”.

For the substance “rANF(8-33): 26-residue fragment of rat atrial natriuretic factor with disulfide bond between the Cys residues”, in the experiment with rat glomerulosa cells [2] (decrease from 24.7±0.8 ng/ml without peptide), the basal corticosterone formation turned out to be 7.8 ± 0.3 ng/mL. In the experiment with rat glomerulosa cells [2] (decrease from 37.2±1.4 ng/ml without peptide, p<0.001), the AN-II-stimulated corticosterone formation worked out at 21.9 ± 0.9 ng/mL. In addition, in the experiment on rat glomerulosa cells [2] (decrease from 43.4±0.7 ng/ml without peptide, p<0.001), the ACTH-stimulated corticosterone formation came to 36.1 ± 0.7 ng/mL. In addition, the stimulation of aldosterone entry in experiment [1] was “at no point was rANF(8-33) observed to stimulate aldosterone”. Further, the “concentration giving significant inhibition of aldosterone synthesis (basal secretion)” value in experiment [1] (basal, 4 hours incubation, p<0.01 versus control, more accentuated at higher concentrations (p<0.001)) is given as ≤ 10^-9 M. For the same substance, in the experiment with rat glomerulosa cells [3], the “inhibition of AN-II-stimulated aldosterone secretion” value is “significant inhibition of aldosterone secretion”. In the experiment with rat glomerulosa cells [4], the “inhibition of ACTH-stimulated aldosterone secretion” value was “significant inhibition of aldosterone secretion”. Moreover, the “effect on pituitary ACTH secretion” value in the experiment on pituitary ACTH secretion is listed as “no effect”.
